This is an account of results in paper PMC5607274, “An iterative compound screening contest method for identifying target protein inhibitors using the tyrosine-protein kinase Yes” (Scientific Reports, 2017).

The structures appear in SMILES notation.

For the first experiment, the target named is T1, human recombinant Yes [a.a. 2–543 (end)] (Homo sapiens, UniProt P07947).
T1 construct: human recombinant Yes [a.a; 2–543 (end)]; purchased BPS Bioscience 40488
T1 sequence (P07947 2-543): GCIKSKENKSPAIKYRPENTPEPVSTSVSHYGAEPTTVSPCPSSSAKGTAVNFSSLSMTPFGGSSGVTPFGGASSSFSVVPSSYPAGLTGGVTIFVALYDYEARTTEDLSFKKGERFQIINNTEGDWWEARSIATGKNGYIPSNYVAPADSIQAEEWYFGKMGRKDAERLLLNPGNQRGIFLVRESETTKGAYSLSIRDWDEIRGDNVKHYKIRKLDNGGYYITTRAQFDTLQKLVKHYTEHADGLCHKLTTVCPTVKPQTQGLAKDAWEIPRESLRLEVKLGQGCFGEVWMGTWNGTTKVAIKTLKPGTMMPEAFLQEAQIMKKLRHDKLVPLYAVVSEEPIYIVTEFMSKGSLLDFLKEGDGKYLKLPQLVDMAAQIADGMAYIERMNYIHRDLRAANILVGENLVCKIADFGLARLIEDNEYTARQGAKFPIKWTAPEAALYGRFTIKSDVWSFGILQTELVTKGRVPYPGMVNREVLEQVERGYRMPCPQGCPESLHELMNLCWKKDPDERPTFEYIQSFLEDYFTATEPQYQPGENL
The experiment in a line: ADP-Glo kinase assay, inhibition rates of Yes phosphorylation activity (first and second screening). The experiment is classed as biochemical. The note with it: first screening; mean of n = 4 wells; 10 μmol L−1 compound. Summed up:
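Hits from a first pass were rescreened after re-dissolution from fresh powder. The first pass reported the mean inhibition rate of quadruplicate wells per compound. Activity was that of recombinant human Yes [a.a. 2–543] kinase, read out with the ADP-Glo ADP-detection method.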
Regarding `O=C(NCCSCc1ccccc1)Nc1ccc(NC(=O)c2ccco2)cc1` [Compound Z412775020], the “First screening IR (inhibition rate)” value was 44%.

As to `O=C(NCc1cccc(C(F)(F)F)c1)Nc1ccc(NC(=O)c2ccco2)cc1` [Compound Z412775872], the “First screening IR (inhibition rate)” value is on record as -5%.

For the molecule `CN(C)C(=O)c1ccc(Cl)c(NC(=O)N2CCc3ccccc3C2)c1` [Compound Z413336660], the “First screening IR (inhibition rate)” value is reported as 5%.

For `COC(=O)c1cn(C)c(-c2ccc(NC(=O)c3ccc(CN4CCCCC4)cc3)cc2)c1C(=O)OC` [Compound Z415024646], the “First screening IR (inhibition rate)” value is given as -1%. With `N#Cc1ccc(-c2cc(-c3ccccc3)c3cc(Br)ccc3n2)cc1` [Compound Z415722772], the “First screening IR (inhibition rate)” value is -4%. Same read-out and setting: to `N#Cc1ccc(-c2cc(-c3ccc(Cl)cc3)c3ccccc3n2)cc1` [Compound Z415722774] belongs 6%; to `CCS(=O)(=O)Cc1cccc(S(=O)(=O)N(C)C)c1` [Compound Z416890194], -10%; to `O=C(Cc1csc(NC(=O)c2ccccc2F)n1)NCC1Cc2ccccc2O1` (stereo not drawn) [Compound Z420283836], -5%. The same measure, in the same setting: to `Cc1nn(C)c2sc(C(=O)NC3CCN(C(=O)C(C)(C)C)CC3)cc12` [Compound Z421731088] belongs 3%; to `Cc1cc(C(=O)Nc2ccc(N3CCNC(=O)C3)c(Cl)c2)c2ccccc2n1` [Compound Z421986674], 7%; to `O=C(NCc1ccnc(Oc2ccccc2)c1)c1ccc(OCc2cccnc2)cc1` [Compound Z424307182], -22%.

For `Cc1n[nH]c(C)c1/C=C/C(=O)c1ccc(N2CCCC2=O)cc1` [Compound Z424802904], the “First screening IR (inhibition rate)” value was 6%.

Turning to `Cc1ccc(NC(=O)c2ccc(N3CC(O)=C(c4nc5ccccc5s4)C3=N)cc2)c(O)c1` [Compound Z425227654], the “First screening IR (inhibition rate)” value is listed as 1%.

`COc1cc2cc(C3CC(C4CC4)=NN3C(C)=O)c(Cl)nc2cc1OC` (stereo not drawn) [Compound Z431511574]: the “First screening IR (inhibition rate)” value is on record as -6%. Same read-out and setting: to `O=C(CCc1ccc(-c2ccccc2F)o1)Nc1cccc(NC(=O)CCn2ccnc2)c1` [Compound Z431623528] belongs 5%; to `Cc1ccccc1-n1c(=O)c2ccccc2n2c(=S)n(CN3CCN(CCC(C)C)CC3)nc12` [Compound Z431773138], 44%; to `COc1cccc(OCCN2CCN(c3cc(C(C)(C)C)nc4c(-c5ccc(Cl)cc5)c(C)nn34)CC2)c1` [Compound Z431973470], 12%. On the same count and under the same terms, to `O=S1(=O)CCN(S(=O)(=O)Cl)CC1` [Compound Z432047124] belongs 0%; to `COc1cccc(OCCN2CCN(c3cc(C)nc4c(-c5ccc(F)cc5)c(C(F)(F)F)nn34)CC2)c1` [Compound Z432102126], -1%; to `O=C(CCc1ccsc1)Nc1cc(C(F)(F)F)c[nH]c1=O` [Compound Z432185696], 4%. Same read-out and setting: to `c1ccc(Cn2cccn2)c(CNc2cncc(-n3cccn3)n2)c1` [Compound Z432289626] belongs 41%; to `C=CCn1c(=O)c2ccccc2n2c(SCC(=O)Nc3ccc(N4CCN(C)CC4)cn3)nnc12` [Compound Z432326346], 8%.

Regarding `CN(C)S(=O)(=O)c1cccc(CS(=O)(=O)c2ccccn2)c1` [Compound Z432528000], the “First screening IR (inhibition rate)” value was determined as 4%. Still for that read-out and setting: to `Cc1ccc(Oc2ccc(NC(=O)N3CCNC(=O)C3)cn2)cc1` [Compound Z435639920] belongs -14%; to `COc1cccc(OCCN2CCN(c3cc(C)nc4c(-c5ccc(Cl)cc5)c(C)nn34)CC2)c1` [Compound Z435980234], 3%; to `CC(C)c1noc(C(C)S(=O)(=O)C/C=C/c2ccccc2)n1` (stereo not drawn) [Compound Z436400008], 6%.

As for `COc1cccc(OCCN2CCN(c3cc(C(C)(C)C)nc4c(-c5ccc(F)cc5)c(C)nn34)CC2)c1` [Compound Z439257332], the “First screening IR (inhibition rate)” value is on record as -1%. The same measure, in the same setting: to `Cc1nn(C(C)(C)C)c2nc(C3CC3)cc(C(=O)NC(C)C)c12` [Compound Z441582602] belongs -6%; to `Cn1ncc2c(N3CCN(CC[S+]([O-])c4cc(Cl)ccc4Cl)CC3)ncnc21` (stereo not drawn) [Compound Z445169626], 4%; to `COc1ccc(CNCc2cn[nH]c2-c2ccc(C)o2)cn1` [Compound Z446209214], -2%.

`CN(C)c1ccc(CNC(=O)N2CCN(C3=NS(=O)(=O)c4ccccc43)CC2)cc1` [Compound Z449089632]: the “First screening IR (inhibition rate)” value came to 1%.

With `Cc1ccc2c(=O)c(C(=O)N(C)CC(=O)Nc3ccc(Cl)c(Cl)c3)c[nH]c2n1` [Compound Z454409356], the “First screening IR (inhibition rate)” value is reported as 45%. Same read-out and setting: the figure for `Cc1oc(C)c(S(N)(=O)=O)c1C(=O)N1CCN(Cc2c(F)cccc2Cl)CC1` [Compound Z466082788] is -3%; for `Cc1cc(CN(C)C(=O)NCc2ccc(N3CCCC3=O)cc2)no1` [Compound Z485637938] it is -16%. Still for that read-out and setting: the figure for `CCN(Cc1ccc(Cl)s1)C(=O)NCc1ccnc(N2CCN(C)CC2)c1` [Compound Z508129336] is 9%; for `CS(=O)(=O)CS(=O)(=O)C(F)(F)F` [Compound Z540725378] it is -4%. On the same count and under the same terms, the figure for `Cc1ncc2c(n1)CCN(C(=O)NCc1cc(-c3ccccc3)no1)C2` [Compound Z558380580] is 1%; for `CCCn1c(=O)c2ccccc2n2c(=S)n(CN3CCC(C(=O)Nc4cc(C)ccn4)CC3)nc12` [Compound Z573186768] it is -4%.

For the molecule `Cc1cccc(NC(=O)C2CCCN(c3nc(CN4CCOCC4)nc4sc(C)c(C)c34)C2)n1` (stereo not drawn) [Compound Z573238670], the “First screening IR (inhibition rate)” value was -5%. Still for that read-out and setting: the figure for `O=C(Nc1cc(N2CCCS2(=O)=O)ccc1O)c1cccc(C(F)(F)F)c1` [Compound Z573928840] is -18%; for `N#CC(C(=O)CCc1ccc(F)cc1)c1nc2cc(Cl)ccc2c(=O)[nH]1` (stereo not drawn) [Compound Z594627070] it is 1%. Same read-out and setting: to `O=C(CCNC(=O)c1cccs1)Nc1ccc2nc(-c3cccc(F)c3)[nH]c2c1` [Compound Z594945904] belongs -4%; to `CN(c1ccc(NC(=O)N2CCN(C(=O)c3cccnc3)CC2)cc1F)C1CCCCC1` [Compound Z595406192], 2%; to `Cc1cc(Br)c(O)c(C(=O)NCCC(=O)N2CCOCC2)c1` [Compound Z596098802], 7%. The same measure, in the same setting: the figure for `COc1ccc(NC(=O)C(=O)c2c(C)nn(-c3ccccc3)c2C)cc1OCc1cn2ccccc2n1` [Compound Z605682156] is -5%; for `CC(C)c1nn(C)c(Cl)c1CNCc1ccc(N2CCOCC2)c(F)c1` [Compound Z635707390] it is -12%.

The same experiment, now with this note: second screening, dissolved from fresh powder; n = 4; 10 μmol L−1 compound.
Turning to `O=C(NCCSCc1ccccc1)Nc1ccc(NC(=O)c2ccco2)cc1` [Compound Z412775020], the “Second screening IR (inhibition rate)” value is on record as -16%. `c1ccc(Cn2cccn2)c(CNc2cncc(-n3cccn3)n2)c1` [Compound Z432289626]: the “Second screening IR (inhibition rate)” value was 18%.
